Test results reported in patent publication US20240009223A1, “6-THIO-2'-DEOXYGUANOSINE (6-THIO-DG) RESULTS IN TELOMERASE DEPENDENT TELOMERE DYSFUNCTION AND CELL DEATH IN VARIOUS MODELS OF THERAPY-RESISTANT CANCER CELLS” (The Board of Regents of The University of Texas System, priority 2016, published 2024).
Where “and” joins values, the source holds several entries; their conditions need not be identical. Equal values may be shown once.

Legend:
[1] = tested on: panel of 12 cancer cell lines of 9 different histological origins; test: Long-term cell growth assay (crystal violet), 12 non-melanoma cancer cell lines; type: cell-based; conditions: dose of 25 μM; 9-12 days
Description: FIGS. 1A-1B show long-term cell growth assay of 12 non-melanoma cancer cell lines (FIG. 1A) and 12 BRAF-mutant melanoma cell lines (FIG. 1B) that were treated with 6-thio-dG (6dG) or BIBR 1532 (BIBR) at indicated doses for 9 to 12 days.
Treatment of a Variety of Cancer Cell Lines with Telomerase-directed 6-thio-dG Impairs Cell Viability. […] To further confirm the inhibitory effect of 6-thio-dG, a panel of 12 cancer cell lines of 9 different histological origins was treated with 6-thio-dG for 9-12 days. As the control for 6-thio-dG, a known telomerase inhibitor, BIBR 1532, was also included. In most cases, these cancer cell lines were sensitive to 6-thio-dG administered at a dose of 2.5 μM and higher (FIG. 1A).

[2] = tested on: metastatic melanoma; test: Immune checkpoint therapy patient's clinical response; type: in vivo, human; conditions: patient #39, previously progressed on other therapies
Description: (§1) Ethics Statement. All clinical data and patient samples were collected following approval by the Massachusetts General Hospital institutional review board and the Hospital of the University of Pennsylvania institutional review board. In all cases informed consent was obtained. All animal studies were conducted in accordance with the Guide for the Care and Use of Laboratory Animals of the NIH. Mice were maintained according to the guidelines of the Wistar Institutional Animal Care and Use Committee (IACUC), and study designs were approved by the Wistar IACUC.
RNA-seq of 31 paired pre-, on- and/or post-treatment tumor biopsies derived from 12 patients who were treated with various immune checkpoint blockade therapies were carried out. […] The ssGSEA identified that “packaging of telomere ends” and “telomere maintenance” were highly enriched in 7 out 12 patients' on- or post-treatment tumor biopsies (FIG. 11). […] Prior to pembrolizumab, this patient progressed on vemurafenib, IL-2, ipilimumab, and dabrafenib plus trametinib. It was observed that “telomere maintenance” and “packaging of telomere ends” were highly enriched in this patient's on-treatment tumor biopsy compared to the paired pre-treatment tumor biopsy (FIG. 9F and Table 8). 00449194) 96

[3] = tested on: metastatic melanoma (BRAF mutation); test: Targeted therapy patients' clinical response; type: in vivo, human; conditions: one patient per row; vemurafenib 1920 mg daily
Description: as §1
In addition to treatment-naïve human melanoma, paired pre-, on- and post-treatment tumor biopsies derived from patients with metastatic melanoma who were treated with targeted therapies or immune checkpoint blockade therapies were analyzed.

[4] = tested on: WO-24-2; test: Relative cell viability, patient-derived culture WO-24-2; type: cell-based, human; conditions: carboplatin at indicated doses, 5 days
Excerpt: A short-term primary culture, WO-24-2 from a therapy-resistant human ovarian cancer, was also established. The WO-24-2 tumor was resected from a patient with high grade serous ovarian cancer who underwent an interval debulking surgery after receiving neoadjuvant chemotherapy with platinum/taxane and subsequently progressed on platinum chemotherapy. Immunofluorescence staining of PAX8 and cytokeratin 7 confirmed that these were indeed human ovarian cancer cells (FIG. 14K) (George et al., 2017).

[5] = tested on: PEO4; test: Relative cell viability, PEO4; type: cell-based, human; conditions: 5 days
Description: (§2) Additionally, the efficacy of 6-thio-dG was tested using two human ovarian cancer cell lines, PEO4 and PEO1-CR. PEO4 is a derivative line of BRCA1/2-mutant PEO1 that regains homologous recombination by BRCA reversion mutation. […] Importantly, all three cell lines were sensitive to 6-thio-dG after the 5-day treatment (FIGS. 14H-14J).

[6] = tested on: PEO1; test: Relative cell viability, PEO1; type: cell-based, human; conditions: 5 days
Description: as §2

[7] = tested on: PEO1-CR; test: Relative cell viability, PEO1-CR; type: cell-based, human; conditions: 5 days
Description: as §2

`C/C(=C\C(=O)Nc1ccccc1C(=O)O)c1ccc2ccccc2c1` [BIBR 1532, reference compound] was tested, and the anti-proliferative activity [1] was “observed in a subset of 12 cancer cell lines”.
In the case of pembrolizumab: anti-PD-1 drug, the best response [2] is reported as “progressive disease”.
For `CCCS(=O)(=O)Nc1ccc(F)c(C(=O)c2c[nH]c3ncc(-c4ccc(Cl)cc4)cc23)c1F` [vemurafenib], the “Response (value in parentheses)” value [3] was −16.5% and −51.2% and −53% and −24.9% and −81.5% and −60.5% and −56% and −27% and the “Time To Progression” value [3] was 6 months and 5 months and 2 months and 4.3 months and PD at 9 months and 13.4 months and 8.5 months and 3.5 months and 6.5 months.
In the case of `N.N.O=C([O-])C1(C(=O)[O-])CCC1.[Pt+2]` [carboplatin, reference compound], the “sensitivity (relative cell viability)” value [4] is reported as “resistant”, the “sensitivity (relative cell viability)” value [5] is reported as “intrinsically resistant” and the “sensitivity (relative cell viability)” value [6] is reported as “sensitive”. The “sensitivity (relative cell viability)” value [7] was “acquired resistance”.
